The results in this text go back to PubChem BioAssay AID489022 (Sanford-Burnham Center for Chemical Genomics, 2010).

What is called IC50 is the concentration at which inhibition is half-maximal.

Molecules are shown by their SMILES. “And” between values parts separate entries of the source, which are not always exact repeats. Identical values can stand only once. The source made the active and inactive calls. No rule for the calls is given here.

In the assay the test system is HEK-293T NF-kB luciferase reporter, luminescence counterscreen. The assay is described as follows: inhibitors of NF-kB luciferase reporter, HEK-293T, dose response, counter-screen for BCR NF-kB inhibitor project, luminescence, B-cell screen hits (AID 489022).
With `Cc1ccc(-c2nn3c(C)nnc3c3ccccc23)cc1S(=O)(=O)NCCN1CCOCC1`, the IC50 is 32 µM (inactive).

Regarding `Cc1nc2cc(-c3ccccc3)nn2c(C)c1CCC(=O)N1CCC2(CC1)OCCO2`, the IC50 was 52 µM (inactive).

As to `C=CCOc1ccc(/C=C2\SC(=S)N(CCC(=O)O)C2=O)cc1`, the IC50 is 51.4 µM (inactive).

Regarding `Cc1ccc(-c2nn3c(C)nnc3c3ccccc23)cc1S(=O)(=O)N1CCN(CCO)CC1`, the IC50 was 22.4 µM (inactive).

Regarding `CC1CCN(c2c(NCc3ccc(C(=O)N4c5ccccc5CC4C)cc3)c(=O)c2=O)CC1` (stereo unspecified), the 50% inhibitory concentration (IC50) is 8.73 µM.

Take `O=C(CCCN1C(=O)/C(=C/c2ccccc2Cl)SC1=S)NNC(=O)c1ccncc1`: the IC50 is 12.7 µM.

As to `CCc1ccc2[nH]c3nc(N/N=C/c4cccc(O)c4)nnc3c2c1`, the IC50 is > 80 µM (inactive).

Consider `COc1ccc(/C=C2\SC(=S)N(CCCC(=O)Nc3ccc(O)cc3)C2=O)cc1`, for which the IC50 was > 80 µM (inactive).

On to `O=C(CCCN1C(=O)S/C(=C\c2ccccc2)C1=O)NNC(=O)c1ccccc1O`, for which the IC50 is 1.64 µM.

Regarding `CCn1c(=O)cc(OCC(=O)NCc2ccc(C)o2)c2ccccc21`, the IC50 is > 80 µM (inactive).

As to `O=C(CN1C(=O)c2ccccc2S1(=O)=O)c1ccccc1Cl`, the IC50 is 7 µM.

As for `CCN(CC)c1ccc(/C=C2/C(=O)ON=C2C)cc1`, the IC50 is > 80 µM (inactive).

For the compound `COc1ccc2nc(C)cc(Sc3nc4ccccc4s3)c2c1`, the IC50 was 11.2 µM.

As for `Cc1cc2ccccn2c1C(=O)c1ccc(NN)c([N+](=O)[O-])c1`, the IC50 is 30.5 µM (inactive).

In the case of `Cc1ccc(-c2nc(C(=O)NCC3CCCO3)cc3c2[nH]c2ccccc23)cc1` (stereo unspecified), the IC50 is 8.81 µM.

As for `CCOc1ccc(-n2c(-c3ccccc3)c[n+]3c2CCCCC3)cc1`, the IC50 is 1.4 µM.

Take `O=C(CSCCO)Nc1ccc(C23CC4CC(CC(C4)C2)C3)cc1`: the IC50 is 3.86 µM.

With `O=C(Nc1ccccc1C(=O)Nc1nnc(C(F)(F)F)s1)c1ccccc1`, the concentration for half-maximal inhibition (IC50) was 4.36 µM.

For `CCn1c(=O)c2cc(C(=O)NCc3cccs3)sc2c2ccccc21`, the IC50 is > 80 µM (inactive).

Consider `CC(C)C(c1nnnn1Cc1ccccc1)N(Cc1ccco1)Cc1cccs1` (stereo unspecified), for which the IC50 was 8.89 µM.

As for `O=[N+]([O-])c1ccc(Sc2cc[n+]([O-])c3ccccc23)c([N+](=O)[O-])c1`, the IC50 was > 80 µM (inactive).

For the compound `COc1ccc(C(=O)N/N=C/c2sc(N3CCOCC3)nc2-c2ccccc2)cc1OC`, the IC50 is 14 µM.

As for `COc1ccc(/C=C2\SC(=S)N(CCC(=O)Nc3ccc(O)cc3)C2=O)cc1`, the IC50 is > 80 µM (inactive).

In the case of `Cc1ccc(C)c(OCc2ccc(C(=O)NN)o2)c1`, the IC50 was > 80 µM (inactive).

For `COc1ccc(/C=C2\SC(=O)N(CCCC(=O)Nc3ccc(C(=O)O)cc3)C2=O)cc1OC`, the IC50 is > 80 µM (inactive).

With `CC(C)N1C(=O)S/C(=C/c2ccc3c(c2)n(C)c(=O)n3C)C1=O`, the IC50 is > 80 µM (inactive).

Take `Cc1ccc(CSc2nnc(SCC(=O)N/N=C/C=C/c3ccccc3[N+](=O)[O-])s2)cc1`: the IC50 was 34.8 µM (inactive).

In the case of `CCN1C(=O)c2cccc3c(S(=O)(=O)Nc4ccccn4)ccc1c23`, the IC50 was 9.44 µM.

Regarding `Cc1cc(NC(=O)CCCN2C(=O)/C(=C/c3ccccc3Cl)SC2=S)no1`, the IC50 was > 80 µM (inactive).

In the case of `Cc1ccc(/C=C2\SC(=S)N(CCCC(=O)NNC(=O)c3ccccc3O)C2=O)cc1`, the IC50 is 5.48 µM.

With `C(=N\Nc1nc(Nc2ccccc2)nc(Nc2ccccc2)n1)/c1cccnc1`, the IC50 was > 80 µM (inactive).

Regarding `O=C(NCCCN1CCOCC1)c1cc(-c2ccc(Br)cc2)on1`, the IC50 was 43.7 µM (inactive).

Turning to `Cc1cc(OCC(=O)Nc2ccc(CCO)cc2)c2c(C)c(C)c(=O)oc2c1`, the IC50 is > 80 µM (inactive).

In the case of `CCOc1cc(/C=N\Nc2nc(Nc3ccccc3)nc(N3CCOCC3)n2)ccc1OC(=O)c1ccco1`, the IC50 was > 80 µM (inactive).

With `Cc1nn(-c2ccc(N3CCCCC3)nn2)c(C)c1CCC(=O)Nc1ccccc1F`, the IC50 is 73.3 µM (inactive).

With `O=C(CCCN1C(=O)S/C(=C/C=C/c2ccccc2)C1=O)Nc1ccc(C(=O)O)cc1`, the IC50 is > 80 µM (inactive).

Consider `CC1CC(C)CN(S(=O)(=O)c2ccc(C(=O)NCCCn3ccnc3)cc2)C1` (stereo unspecified), for which the IC50 was > 80 µM (inactive).

As to `CCCOc1ccc(NC(=O)C(=O)NCCCn2ccnc2)cc1`, the IC50 was > 80 µM (inactive).

Turning to `CCOc1ccc(-c2nnc(SCC(=O)NC3CC3)o2)cc1`, the IC50 is > 80 µM (inactive).

In the case of `COC(=O)[C@@]12OC[C@]34[C@H]([C@@H](O)[C@@H]1O)[C@@]1(C)C(=O)C(O[C@@H]5OC(CO)[C@@H](O)[C@@H](O)[C@@H]5O)=C[C@@H](C)[C@@H]1C[C@H]3OC(=O)[C@H](OC(=O)/C=C(\C)C(C)(C)OC(C)=O)[C@@H]24` (stereo partly specified), the IC50 was 3.2 µM.

As to `CC(C)C[C@@H](N)c1nnc(SCC(=O)c2ccc(Cl)cc2)o1`, the IC50 was 31.9 µM (inactive).

For the compound `COC(=O)C1=C(c2ccc(-c3ccccc3)c(F)c2)C[C@@H]2CC[C@H]1N2C(=O)N1CCCC1`, the IC50 is 1.83 µM.

As to `O=C(CCl)N(c1ccc(Cl)cc1)c1c[nH]c2ccccc12`, the IC50 was 10.8 µM.

With `COc1ccc(/C=C2\SC(=S)N(CCC(=O)Nc3cccc(O)c3)C2=O)cc1`, the IC50 was > 80 µM (inactive).

Consider `C#CCN(Cc1ccccc1)S(=O)(=O)C=C`, for which the IC50 was 51.3 µM (inactive).

Consider `CC(C)(C)c1ccc(-c2noc(CCC(=O)NCc3ccco3)n2)cc1`, for which the IC50 is 0.49 µM.

`Cc1nn(C)c(C)c1CN(C)S(=O)(=O)c1ccc2ccccc2c1`: the IC50 is 0.36 µM.

Consider `O=C(N/N=C/c1cccnc1)c1cc(-c2ccccc2OCc2ccccc2)n[nH]1`, for which the IC50 was 12.7 µM.

As to `Cc1nc2cc(-c3ccc(Cl)cc3)nn2c(C)c1CCC(=O)NC(C)c1ccc2c(c1)OCCO2` (stereo unspecified), the IC50 was 11.5 µM.

Consider `CCCc1nc2c(C)cc(-c3nc4ccccc4n3C)cc2n1Cc1ccc(-c2ccccc2C(=O)O)cc1`, for which the IC50 is > 80 µM (inactive).

Take `CCOc1ccc(-c2cc(CCCC(=O)NCc3ccc(C)cc3)no2)cc1`: the IC50 is 70.9 µM (inactive).

On to `Cc1ccc(/C=C2\SC(=S)N(CCCC(=O)NC3CCCC3)C2=O)cc1`, for which the IC50 was > 80 µM (inactive).

For the compound `CC(C)Oc1ccc(C(=O)Nc2ccc(N(C)C)cc2)cc1`, the IC50 was > 80 µM (inactive).

On to `N=c1ccn(Cc2ccccc2Cl)cc1`, for which the IC50 is 21.3 µM (inactive).

Take `COc1ccc(OC)c(S(=O)(=O)Nc2ccc(-c3ccc4nnc(C)n4n3)cc2)c1`: the IC50 was 32.2 µM (inactive).

As to `CCn1c(=O)cc(SCC(=O)N2CCOCC2)c2ccccc21`, the IC50 was > 80 µM (inactive).

Take `COC(=O)[C@@H]1Cc2c([nH]c3ccccc23)C(C)(C)N1C(=O)CCl`: the IC50 is 36 µM (inactive).

With `C[C@H]1CCC/C=C/[C@@H]2C[C@H](O)C[C@H]2[C@H](O)/C=C/C(=O)O1`, the half-maximal inhibitory concentration (IC50) is 0.42 µM and 0.52 µM.

As for `COc1ccc(C(=O)Nc2ccccc2C(=O)NCc2ccco2)cc1OC`, the IC50 is > 80 µM (inactive).

Regarding `O=C(CCl)Nc1ccccc1Sc1ccccc1`, the IC50 was 37.8 µM (inactive).

Turning to `COc1ccc(C(C(=O)NC2CCCCC2)N(C(=O)CCl)c2ccc(OC)cc2)cc1` (stereo unspecified), the half-inhibitory concentration (IC50) is 15.2 µM.
